For assay [1], the system named is T. cruzi. As to the kind of experiment: T. cruzi trypomastigote (TRY) in-vitro screen. The assay is classed as cell-based.
Description: (§3) In-vitro chemotherapy screens have for many years used models involving three stages of the T. cruzi life cycle: • (1) Epimastigote. Dividing populations are easily cultivated in a range of defined and semi-defined media, but are equivalent to a vector stage of the life cycle. • (2) Trypomastigote. These are isolated from a rodent host and can be maintained as a non-dividing population for 24-48 h in media. • (3) Amastigote. Dividing populations can be cultivated in muscle cells, fibroblasts and macrophages, following infection with trypomastigotes. After the initial infection, there is normally a period of 4-5 days during which the amastigotes divide before transforming, via the epimastigote stage, back to trypomastigotes which escape from the cell. Drug activity is measured during this 4-5 day period. A dividing host cell population, low infection rate, and the presence of trypomastigotes in the overlay can complicate the interpretation of results.
The test system of assay [2] is T. cruzi. As to the kind of experiment: T. cruzi mouse model, in-vivo. From the text:
(§1) In-vitro and in-vivo models were used to test activities of a selection of many compounds. Those activities are summarized in Tables 1-3, showing variation between systems and species. Activities measured in the MP mo and HM mo models have shown the best correlation with results obtained in hamster and mouse models.

The subject of assay [3] is T. cruzi. As to the kind of experiment: T. cruzi epimastigote (EPI) in-vitro screen. The assay is classed as cell-based.
Description: as §3
In assay [4] the test system is T. cruzi. As to the kind of experiment: T. cruzi intracellular amastigote (AM) in-vitro screen. The assay is classed as cell-based.
Description: Dividing populations can be cultivated in muscle cells, fibroblasts and macrophages, following infection with trypomastigotes. After the initial infection, there is normally a period of 4-5 days during which the amastigotes divide before transforming, via the epimastigote stage, back to trypomastigotes which escape from the cell. Drug activity is measured during this 4-5 day period. A dividing host cell population, low infection rate, and the presence of trypomastigotes in the overlay can complicate the interpretation of results.
Intracellular amastigote models can use a range of muscle (skeletal and cardiac) and fibroblast (e.g. HeLa, HePa) cell lines, macrophages, and chick embryo cells. […] To overcome the problems of overgrowth of the monolayer and a low percentage of infected cells, often associated with the use of cell lines, irradiated rat L6 myoblasts are used.
Assay [5] concerns T.b. brucei, T.b. gambiense and T.b. rhodesiense. Put plainly: Isolated bloodstream trypomastigote (TRY) in-vitro screen. Format: cell-based. The method, then:
(§2) Primary screening for new trypanocides has made extensive use of rodent systems, in which host survival time is a simple indicator of drug activity. In-vitro screens have used a variety of trypomastigote types (see Table 3, below). […] Most early in-vitro screens employed a short test in which bloodstream trypomastigotes were isolated from an infected rodent and maintained for up to 24 h in a simple drug-containing media. Two significant modifications of this technique include maintaining isolated bloodstream trypomastigotes in drug-containing media for 3-4 hours at 37° C in micro-titre plates and their subsequent viability assessed by the uptake of radiolabelled precursors or motility and infectivity to mice.
In-vitro studies on isolated bloodstream trypomastigotes were also used in the rational biochemical approaches towards the chemotherapy of T. brucei infections involving inhibitors of carbohydrate catabolism salicyl hydroxamic acid plus glycerol), of polyamine synthesis (methylgyoxal bis-guanylhydrazone and - DFMO), and of surface coat glycoprotein synthesis (Tunicamycin). In these studies, activity of the compounds are shown in-vitro and in-vivo, whereas the sensitivity of isolated bloodstream trypomastigotes to toxic oxygen radicals generated by naphthoquinones was not shown by the parasites in mice. The activity of the standard anti-trypanosomals-melarsoprol, pentamidine and suramin and tested compounds according to the present invention in in-vitro systems is shown in Table 3.
as §1

For assay [6] the test system is unchanged. Put plainly: African trypanosomiasis mouse model, in-vivo. The protocol:
as §2, §1

Assay [7] shares this test system. As to the kind of experiment: Cultivated bloodstream trypomastigote (TRY) in-vitro screen. Format: cell-based.
Source text: Culture systems developed in the last decade have used mammalian cell feeder layers to support the growth of dividing populations of bloodstream trypomastigotes of T. brucei spp. Some of these systems have been used in chemotherapy studies, including; (1) bovine fibroblast culture - T. brucei models to test some standard and experimental compounds, (2) murine bone marrow culture - T.b. gambiense model to screen inosine analogues and platinum and hypolipidemic compounds, and (3) Microtus embryonic fibroblast culture (MEF) - T.b. rhodesiense model to test standard and experimental drugs. These systems give a good indication of in-vivo activity (see Table 3). They measure activity against dividing cells rather than specific macromolecular synthesis pathways and can be readily established in micro-titre plates. The MEF and bone marrow cell feeder layers can be used to grow a range of strains of T. brucei spp., offering the possibility of examining variations in drug susceptibility and resistance between strains. The presence of a feeder layer, however, limits the opportunities for the automation of these systems.
as §1

The text below walks through data of patent EP0462621A2, “Use of particular compounds for manufacture of pharmaceutical formulations for treatment against various parasites, mycoplasmas, other indications and other infections” (Prendergast, Patrick Thomas, priority 1990, dated 1991).

Consider `O=C(Cn1ccnc1[N+](=O)[O-])NCc1ccccc1` [Benznidazole, benznidazole, reference compound], for which the “activity, TRY” value with T. cruzi [1] (T. cruzi strain Sonya) and in the assay on T. cruzi [1] (T. cruzi strain Y) was “++(Y,Sonya)” throughout. For the same compound, the “activity, mouse model” value is on record as “+” in the assay with T. cruzi [2] (T. cruzi strain Sonya) and “++” in the assay with T. cruzi [2] (T. cruzi strain Y). The “activity, EPI” value is reported as “++(Y,MR, Sonya)” with T. cruzi [3] (T. cruzi strain MR); “++(Y,MR, Sonya)” in the assay on T. cruzi [3] (T. cruzi strain Sonya); “++(Y,MR, Sonya)” in the assay on T. cruzi [3] (T. cruzi strain Y). Besides, the “activity, intracellular AM” value in the assay with T. cruzi [4] (T. cruzi strain Sonya) and in the assay with T. cruzi [4] (T. cruzi strain Y) was “++(Y,Sonya)” throughout.
As to `Nc1nc(N)nc(Nc2ccc([As]3SCC(CO)S3)cc2)n1` (centres unmarked) [Melarsoprol, melarsoprol, reference compound], the “activity, isolated bloodstream TRY” value in assay [5] is on record as “+ +”. For the same compound, the “activity, mouse model” value in assay [6] is on record as “+ +”. Further, the “activity, cultivated bloodstream TRY” value in assay [7] is reported as “+ +”.
In the case of `CC1CS(=O)(=O)CCN1/N=C/c1ccc([N+](=O)[O-])o1` (centres unmarked) [Nifurtimox, nifurtimox], the “activity, mouse model” value in the assay on T. cruzi [2] (T. cruzi strain CL) is “++ and +”; in the assay on T. cruzi [2] (T. cruzi strain Sonya) it was “+”; in the assay on T. cruzi [2] (T. cruzi strain Tu) it was “+”; in the assay with T. cruzi [2] (T. cruzi strain WBH), “++”; in the assay with T. cruzi [2] (T. cruzi strain Y) it was “++ and +”. Also, the “activity, intracellular AM” value in the assay with T. cruzi [4] (T. cruzi strain Sonya) was “++(Y,WBH, Sonya)”; in the assay on T. cruzi [4] (T. cruzi strain WBH) it was “++(Y,WBH, Sonya)”; with T. cruzi [4] (T. cruzi strain Y) it was “++(Y,WBH, Sonya)”.
